Blank lines part the entries; values can stand above or below the compound they belong to.
Tests used:
[1] = test system: RIM tumour (rhabdomyo-sarcoma); assay: In vivo evaluation of SPECT tracers in RIM tumour (rhabdomyo-sarcoma)-bearing rats; design: species or system rat
Description: In the research that led to the invention two new potential SPECT tracers, 2-^123I-tyrosine (2-^123I-Tyr) and 2-^123-I-phenylalanine, were developed.

[2] = test system: R1M tumour; assay: PET of R1M tumour bearing rat after intravenous injection; assay type: in vivo; conditions: 120 Mbq intravenously, FIG. 2
Description: FIG. 2: PET of R1M tumour bearing rat. The tumour is visible at the upper right, the pancreas in the middle and the bladder under. 120 Mbq L-2-^18F-methyl-phenylalanine was intravenously injected.
In Vivo Rat Evaluation of L-2-18F-methyl-phenylalanine in a R1M Tumour Bearing Rat by Means of PET
The latter is typical for rodent.

[3] = molecular target: T1, L-transport system 1 (LAT1) (Rattus norvegicus, UniProt Q63016); assay: Inhibition of L-3H-phenylalanine uptake in rat rhabdomyo-sarcoma (R1M) cells in vitro; assay type: cell-based
T1 construct: endogenous in cells; host or cells: R1M rat rhabdomyosarcoma cells
T1 sequence (Q63016 whole entry): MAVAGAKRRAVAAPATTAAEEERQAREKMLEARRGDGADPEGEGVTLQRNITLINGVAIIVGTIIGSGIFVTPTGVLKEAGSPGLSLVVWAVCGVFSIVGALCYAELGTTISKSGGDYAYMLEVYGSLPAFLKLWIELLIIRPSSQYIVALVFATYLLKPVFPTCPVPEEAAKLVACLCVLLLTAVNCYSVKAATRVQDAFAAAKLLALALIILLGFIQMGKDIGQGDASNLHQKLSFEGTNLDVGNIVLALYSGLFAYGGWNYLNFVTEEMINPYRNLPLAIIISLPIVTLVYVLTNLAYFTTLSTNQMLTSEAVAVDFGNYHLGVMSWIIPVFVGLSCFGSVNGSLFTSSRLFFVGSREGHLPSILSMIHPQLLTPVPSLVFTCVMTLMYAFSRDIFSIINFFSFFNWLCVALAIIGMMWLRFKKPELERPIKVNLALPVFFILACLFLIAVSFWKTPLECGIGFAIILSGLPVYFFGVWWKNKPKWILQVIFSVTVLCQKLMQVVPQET
T1 sequence (Q794F9 whole entry partner): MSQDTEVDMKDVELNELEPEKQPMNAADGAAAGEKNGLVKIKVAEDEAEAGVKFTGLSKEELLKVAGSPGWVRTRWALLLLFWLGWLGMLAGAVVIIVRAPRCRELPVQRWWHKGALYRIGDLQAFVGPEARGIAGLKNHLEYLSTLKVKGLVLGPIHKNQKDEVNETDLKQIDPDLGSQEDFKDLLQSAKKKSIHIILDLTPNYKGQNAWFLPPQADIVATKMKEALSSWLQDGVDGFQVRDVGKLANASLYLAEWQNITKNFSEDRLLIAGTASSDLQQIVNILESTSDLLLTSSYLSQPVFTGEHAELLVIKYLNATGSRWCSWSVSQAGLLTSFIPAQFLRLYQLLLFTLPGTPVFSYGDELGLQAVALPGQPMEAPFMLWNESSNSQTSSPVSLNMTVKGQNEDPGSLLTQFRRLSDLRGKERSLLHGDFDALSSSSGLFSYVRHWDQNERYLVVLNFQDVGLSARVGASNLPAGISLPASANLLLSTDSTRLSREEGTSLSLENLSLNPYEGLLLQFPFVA
Description: FIG. 1: Inhibition of ^3H-Phe/Phe uptake in R1M cells in vitro by L-2-F-methyl-PHE. The common intercept proves that the inhibition is competitive and that L-2-F-methyl-Phe uses the same transport system as L-Phe.
The affinity of L-2-F-methyl-phenylalanine for uptake by the L-transport system 1 (LAT1) in cancer cells (rat rhabdomyo-sarcoma cells) was determined by measuring the inhibition of the uptake of L-^3H-phenylalanine after 15 minutes incubation in HEPES buffer of pH 7.4 containing appropriate amounts of L-phenylalanine and of L-2-F-methyl-phenylalanine. The uptake was saturable and followed the typical Michaelis-Menten relation allowing to draw Lineweaver-Burk (FIG. 1) plots.

[4] = test system: R1M cells; assay: Preliminary uptake experiments in R1M cells in vitro; assay type: cell-based; conditions: buffer simulating in vivo conditions
Description: The inventors considered based on the results obtained with ^18F-FET and their own results with 2-^123I-Phe and 2-^123I-Tyr that the aromatic amino acid properties are conserved after substitution of an O-ethyl group and even in the presence of a voluminous iodine atom. This invention is thus based on the new approach to introduce an alkyl side chain on the phenyl ring to facilitate introduction of the radioactive atom. They thus provided an ^18F-alkyl-phenyl structure in phenylalanine and tyrosine, either ortho, meta or para. Examples are ^18F-CH[…] or ^18F-CH2-CH[…] and 2-^18F-CH[…] or 2-^18F-CH2-CH[…]. This reduces the labelling chemistry to direct conventional nucleophilic aliphatic substitution on the alkylphenylic side branch of the L-amino acid. In this approach cumbersome stereospecific synthesis is not required. The same strategy was followed for the radio-fluorination of the aliphatic amino acids leucine and isoleucine. […] Since aliphatic-substituted F hardly changes the pharmacology, it follows that these aliphatic amino acids are also suitable molecules for radio-fluorination.

- activity in the kidneys relative to IMT ([1]; rat, in vivo): 10 times less
- high brain uptake observed ([1]; rat, in vivo): no
- renal accumulation ([1]; rat, in vivo): no renal accumulation
- uptake in the tumours ([1]; rat, in vivo): high uptake
Compound: N[C@@H](Cc1ccccc1[123I])C(=O)O [2-^123-I-phenylalanine]

- accumulation in the kidneys or other organs (PET) [2]: No accumulation
- uptake in the tumour and pancreas (PET) [2]: high uptake
Compound: N[C@@H](Cc1ccccc1C[18F])C(=O)O [L-2-18F-methyl-phenylalanine]
- route of clearance (PET) [2]: cleared through the kidneys to the bladder

- Ki ([3]; 15 minutes incubation, HEPES buffer pH 7.4, rat rhabdomyo-sarcoma cells): 76 µM
- type of inhibition of 3H-Phe/Phe uptake (Lineweaver-Burk plots) ([3]; R1M cells in vitro, FIG. 1): competitive
Compound: N[C@@H](Cc1ccccc1CF)C(=O)O [L-2-F-methyl-phenylalanine]

- Km ([3]; same conditions: 15 minutes incubation, HEPES buffer pH 7.4, rat rhabdomyo-sarcoma cells): 65 µM
Compound: N[C@@H](Cc1ccccc1)C(=O)O [L-phenylalanine]

The remaining lines, values behind:

Compound: N[C@@H](Cc1ccc(O)cc1[123I])C(=O)O [2-^123I-tyrosine]
- activity in the kidneys relative to IMT ([1]; RIM tumour-bearing rats): 10 times less
- high brain uptake observed ([1]; RIM tumour-bearing rats): no
- renal accumulation ([1]; RIM tumour-bearing rats): no renal accumulation
- uptake in the tumours ([1]; RIM tumour-bearing rats, comparable with IMT): high uptake

Compound: CC(C)C[C@H](N)C(=O)O [^3H-leucine]
- uptake in R1M cells [4]: comparable with 3H-Tyr and ^3H-Phe

Compound: ^3H-isoleucine
- uptake in R1M cells [4]: comparable with 3H-Tyr and ^3H-Phe
